Test results from patent US20230081132A1 (priority 2021, published 2023).
≈ marks a conversion by molar mass, not a printed value. Where “and” joins values, the source holds several entries; their conditions need not be identical. Equal entries are not always repeated.

What was measured:
Format in all cases: binding
TTX monoclonal antibody [1] = system: TTX monoclonal antibody
TTX monoclonal antibody [2] = system: TTX monoclonal antibody; remark: listed apart in the source
TTX monoclonal antibody [3] = system: TTX monoclonal antibody; remark: listed apart in the source

MC-LR
FLT (a.u.) (TTX monoclonal antibody [1]): 452864 a.u. and 478692 a.u. and 475179 a.u. and 469265 a.u. and 465390 a.u. and 480375 a.u.

NC1=N[C@H](O)[C@H]2[C@H]3O[C@]4(O)O[C@@H]([C@@H](O)[C@@]2(N1)[C@@H]4O)[C@]3(O)CO [TTX, Tetrodotoxin]
competitive inhibition rate (1-T/T0) (TTX monoclonal antibody [2]): 0.3 | fluorescence signal value of detection line (TTX monoclonal antibody [2]): 343000 a.u. | IC50 (TTX monoclonal antibody [3]): 1.713 ng/mL (≈ 5.37 nM)

C/C(=C/C=C/[C@@H](C)C(=O)O)[C@H]1CN[C@H](C(=O)O)[C@H]1CC(=O)O [DA]
FLT (a.u.) (TTX monoclonal antibody [1]): 503422 a.u. and 504729 a.u. and 501687 a.u. and 506770 a.u. and 503922 a.u. and 508625 a.u.
